In ChEMBL document CHEMBL1153022, “Pyrrolidinoindoline alkaloids from Selaginella moellendorfii” (J Nat Prod, 2009) one finds IC50 and Activity data, which are given here for five compounds.

Activity calls are given as the source filed them. The rule behind the calls is not given here.

Usually IC50 stands for the concentration needed to halve the response being measured.

Assay [1] has as its system A549. Briefly: cells. The following applies: Homo sapiens.
Description: Cytotoxicity against human A549 cells by SRB method
Another assay deals with Escherichia coli. As to the kind of experiment: Antibacterial activity against Escherichia coli up to 200 ug/ml by microdilution assay. It counts as functional, organism-based. In general terms: In broth dilution the organism is exposed to a series of concentrations in liquid medium.
In a further assay the test system is Staphylococcus aureus. As to the kind of experiment: Antibacterial activity against Staphylococcus aureus up to 200 ug/ml by microdilution assay. Type of assay: functional, organism-based.
The subject of assay [2] is K562. Briefly: Cytotoxicity against human K562 cells up to 200 ug/ml by MTT assay. Type of assay: functional, cell-based.
For assay [3], the system named is A549. Briefly: Cytotoxicity against human A549 cells up to 200 ug/ml by SRB method. Type of assay: functional, cell-based. Background: The SRB assay estimates cell density from bound dye.
The target of assay [4] is Acetylcholinesterase (Homo sapiens) (UniProt P22303). Briefly: Inhibition of human AChE up to 200 ug/ml by Ellman's assay. Background: In Ellman's method for cholinesterases, released thiocholine reacts with DTNB.
Assay [5] relates to K562. Briefly: cells. The note with it: Homo sapiens.
Description: Cytotoxicity against human K562 cells by MTT assay

Sequence of Acetylcholinesterase (Homo sapiens) (P22303 whole entry): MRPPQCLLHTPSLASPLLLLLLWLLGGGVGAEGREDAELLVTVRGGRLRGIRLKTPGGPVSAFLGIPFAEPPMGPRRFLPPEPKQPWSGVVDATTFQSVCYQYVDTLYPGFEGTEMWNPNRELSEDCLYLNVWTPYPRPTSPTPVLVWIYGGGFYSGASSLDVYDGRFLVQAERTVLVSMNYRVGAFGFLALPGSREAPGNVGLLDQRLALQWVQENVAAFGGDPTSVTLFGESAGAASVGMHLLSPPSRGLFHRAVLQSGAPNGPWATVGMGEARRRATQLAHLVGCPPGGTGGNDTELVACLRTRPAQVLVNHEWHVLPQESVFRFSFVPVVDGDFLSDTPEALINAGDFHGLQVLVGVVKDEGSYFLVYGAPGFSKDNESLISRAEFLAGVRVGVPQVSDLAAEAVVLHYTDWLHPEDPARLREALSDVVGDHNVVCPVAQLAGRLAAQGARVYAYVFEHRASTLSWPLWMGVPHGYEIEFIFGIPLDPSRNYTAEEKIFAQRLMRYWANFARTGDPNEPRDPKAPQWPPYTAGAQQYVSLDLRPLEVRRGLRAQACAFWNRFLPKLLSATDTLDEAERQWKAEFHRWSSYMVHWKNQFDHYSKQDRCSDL

In the assay on A549 [1], `O=c1[nH]cc(F)c(=O)[nH]1` [FLUOROURACIL] registered an IC50 of 20.8 µM.

As for `C/C(=C\C[C@@]1(c2ccccc2N(C)C)CCN(C)C1=O)C(=O)O`, the outcome (in the assay on Escherichia coli; in the assay on Staphylococcus aureus; in the assay with K562 [2]; in the assay on A549 [3]; in assay [4]) was inactive.

Turning to `C/C(=C\C[C@@]12CCN(C)[C@@H]1[N+](C)(C)c1ccccc12)C(=O)[O-]`, the result (in the assay with Escherichia coli; in the assay with Staphylococcus aureus; in the assay on K562 [2]; in the assay with A549 [3]; in assay [4]) was inactive.

Consider `C/C(=C\C[C@@]12CCN(C)[C@@H]1[N+](C)(C)c1ccccc12)C(=O)N[C@@H](Cc1ccccc1)C(=O)[O-]`, for which the outcome (in the assay on Escherichia coli; with Staphylococcus aureus; in the assay with K562 [2]; with A549 [3]; in assay [4]) was inactive.

As to `COc1cccc2c1C(=O)c1c(O)c3c(c(O)c1C2=O)C[C@@](O)(C(=O)CO)C[C@@H]3O[C@H]1C[C@H](N)[C@H](O)[C@H](C)O1` [DOXORUBICIN], half-maximal inhibition in the assay on K562 [5] (IC50) required 0.32 µM.
